# From patent US10106853B2, “CUL4B as predictive biomarker for cancer treatment” (CORNELL UNIVERSITY, priority 2012, dated 2018)
# How the values were obtained:
# T47D cells = assay: XTT assay for cytotoxic response to camptothecin, T47D; assay type: cell-based, Human
# BT474 cells = assay: XTT assay for cytotoxic response to camptothecin, BT474; assay type: cell-based, Human
# Procedure: FIG. 2. CUL4B interacted with Top1 and induced Top1 degradation in the presence of CPT. A) Knockdown of CUL4B impaired CPT-induced Top1 degradation. BT474 cells were infected with lentiviral shCUL4B, shCUL4A or control non-targeting shRNA, and selected for stable CUL4B^k/d or CUL4A^k/d cells upon treatment with puromycin. Following treatment with CPT (50 μM) for 1 hour, cells were replenished with CPT-free fresh medium and incubated at 37° C. for 30 minutes. Top1 degradation was assessed by immunoblotting with an anti-Top1 antibody. Levels of α-tubulin were measured as a loading control. B) Association of CUL4B with Top1 following CPT treatment. […] Top1 degradation was assessed by immunoblotting with the anti-Top1 antibody. Levels of α-tubulin were measured as a loading control. […] Statistical significance in cellular response to CPT between control BT474 cells and CUL4A^k/d or CUL4B^k/d cells were assessed by a two-tailed unpaired student t-test (***: p<0.001). […] Statistical significance in cellular response to camptothecin between control cells and CUL4A^k/d or CUL4B^k/d BT474 cells are assessed by student's t-test.
# Synchronized cells were seeded into 96-well microplates. […] The optical density was measured with a microplate reader. […] Data were expressed as the mean±S.E. Difference in the survival ratios between the two cell lines at each concentration point was assessed by the student's T test. […]
smiles,measurement,setting,value
"CC[C@@]1(O)C(=O)OCc2c1cc1n(c2=O)Cc2cc3ccccc3nc2-1 [CPT, (S)-4-ethyl-4-hydroxy-1H-pyrano[3′,4′:6,7]indolizino[1,2-b]quinoline-3,14-(4H, 12H)-dione]",Survival rate of CPT-treated cells,T47D cells; T47D cells with knockdown of CUL4A,no effect
same,Cytotoxic killing by CPT (cell survival),"T47D cells; T47D cells with knockdown of CUL4B, CPT three days",sensitized
same,Survival rate of CPT-treated cells,BT474 cells; BT474 cells with knockdown of CUL4A,no effect
same,Cytotoxic killing by CPT (cell survival),"BT474 cells; BT474 cells with knockdown of CUL4B, CPT three days",sensitized
